For 9 compounds, EC50 results are on record in patent publication US10344019B2 (priority 2010, dated 2019).

Common to all, as to assay: microbe, parasite or virus in culture
Assay type in all cases: cell-based

The test system of assay [1] is HCV 1a RLuc cells (dicistronic genotype 1a H77 replicon, RLuc reporter). To be noted: Hepatitis C virus, genotype 1a H77 replicon, read-out: 1a. The essentials: (§1)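 Replicons used: genotype 1b Con1, 1a H77, 2a JFH-1, and a 2a JFH-1 chimera with J6-strain NS5A (M31 present), all dicistronic.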
Assay [2] concerns HCV 4a Rluc cells (NS5A chimeric genotype 1b Con1 replicon with genotype 4a NS5A gene). As to conditions: Hepatitis C virus, read-out: 4a. The procedure, abridged: (§2)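 Replicon cells stably carrying the listed RLuc-encoding dicistronic replicons were seeded and treated with DMSO serial dilutions of compound (10 mM stocks) diluted into culture medium. After 72 h, cells were lysed and Renilla luciferase activity measured. EC50 was derived by non-linear regression.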

For assay [3], the system named is HCV 3a RLuc cells (NS5A chimeric genotype 1b Con1 replicon with consensus genotype 3a NS5A gene). As to conditions: Hepatitis C virus. The procedure, abridged: as §2
The test system of assay [4] is HCV 1b RLuc cells (dicistronic genotype 1b Con1 replicon, RLuc reporter). To be noted: Hepatitis C virus, read-out: 1b (nM). The procedure, abridged: as §1
Assay [5] deals with HCV 2a JFH-1 Rluc cells (dicistronic genotype 2a JFH-1 replicon, RLuc reporter). To be noted: Hepatitis C virus, genotype 2a JFH-1 replicon, read-out: 2a JFH. The essentials: as §1
(A replicon is a self-replicating genome or part of one, used to study replication in cells.)

The mark [6] stands for this setting: read-out: 3a, Table 1, genotype 3a NS5A chimeric replicon.
[7] abbreviates: read-out: 3a, Table 2, genotype 3a NS5A chimeric replicon.
Setting [8] is: read-out: 3a, genotype 3a NS5A chimeric 1b Con1 replicon.

Where two headings read alike, the source gives them in different places.

Consider `COC(=O)N[C@H](C(=O)N1CCC[C@H]1c1ncc(-c2cc3c4c(c2)CCc2cc(-c5cnc([C@@H]6CCCN6C(=O)[C@@H](NC(=O)OC)C(C)C)[nH]5)cc(c2-4)CC3)[nH]1)C(C)C` [Example 20], for which the EC50 in assay [1] (72 h, Table 1, 72 hours) was 0.001 to 0.999 nM; in assay [2], 0.001 to 0.99 nM; in assay [3] (setting [6]), 0.001 to 0.99 nM; in assay [4] (72 h), 0.021 nM; in assay [5] (72 h, Table 1, 72 hours) it was 0.001 to 0.999 nM.
For the compound `COC(=O)N[C@H](C(=O)N1[C@@H]2CC[C@@H](C2)[C@H]1c1ncc(-c2ccc(-c3ccc4cc(-c5cnc([C@@H]6CCCN6C(=O)[C@H](NC(=O)OC)c6ccccc6)[nH]5)ccc4c3)cc2)[nH]1)C(C)C` [Example 42], the EC50 in assay [1] (72 h, Table 2, 72 hours) was 0.001 to 0.999 nM; in assay [2] it was 0.001 to 0.99 nM; in assay [3] (setting [7]) it was 1 to 4.99 nM; in assay [4] (72 h), 0.008 nM; in assay [5] (72 h, Table 2, 72 hours) it was 0.001 to 0.999 nM.
For `COC(=O)NC(C(=O)N1CCC[C@H]1c1ncc(-c2ccc(-c3ccc4cc(-c5cnc([C@@H]6CCCN6C(=O)[C@@H](NC(=O)OC)C(C)C)[nH]5)ccc4c3)cc2)[nH]1)c1cnccn1` (stereo partly drawn) [Example 230], the EC50 is 0.001 to 0.999 nM in assay [1] (RLuc reporter); 1 to 4.99 nM in assay [2]; 1 to 4.99 nM in assay [3] (setting [8]); 0.012 nM in assay [4]; 1 to 44 nM in assay [5] (RLuc reporter).
Consider `COC(=O)NC(C(=O)N1CCC[C@H]1c1ncc(-c2cc3c4c(c2)CCc2cc(-c5cnc([C@@H]6CCCN6C(=O)[C@@H](NC(=O)OC)[C@@H](C)OC)[nH]5)cc(c2-4)CC3)[nH]1)[C@@H](C)OC` (stereo partly drawn) [Example 21], for which the EC50 in assay [1] (72 h, Table 1, 72 hours) was 0.001 to 0.999 nM; in assay [2], 0.001 to 0.99 nM; in assay [3] (setting [6]), 0.001 to 0.99 nM; in assay [4] (72 h), 0.06 nM; in assay [5] (72 h, Table 1, 72 hours) it was 0.001 to 0.999 nM.
Take `COC(=O)N[C@H](C(=O)N1CCC[C@H]1c1ncc(-c2ccc3cc(-c4ccc(-c5cnc([C@@H]6CCCN6C(=O)C6(NC(=O)OC)CCc7ccccc76)[nH]5)cc4)ccc3c2)[nH]1)C(C)C` (stereo partly drawn) [Example 196]: the EC50 in assay [1] (RLuc reporter) is 1 to 44 nM; in assay [2], 0.001 to 0.99 nM; in assay [3] (setting [8]) it was more than 5 nM; in assay [4], 0.036 nM; in assay [5] (RLuc reporter), 1 to 44 nM.
On to `COC(=O)N[C@H](C(=O)N1CCC[C@H]1c1ncc(-c2ccc(C#Cc3ccc4c(ccc5nc([C@@H]6CCCN6C(=O)[C@@H](NC(=O)OC)C6CCOCC6)[nH]c54)c3)cc2)[nH]1)C(C)C` [Example 229], for which the EC50 in assay [1] (RLuc reporter) is 0.001 to 0.999 nM; in assay [2], 0.001 to 0.99 nM; in assay [3] (setting [8]), 1 to 4.99 nM; in assay [4], 0.018 nM; in assay [5] (RLuc reporter), 0.001 to 0.999 nM.
For `COC(=O)N[C@H](C(=O)N1CCC[C@H]1c1nc2ccc3cc(-c4ccc5cc(-c6cnc([C@@H]7CCCN7C(=O)[C@@H](NC(=O)OC)C7CCOCC7)[nH]6)ccc5c4)ccc3c2[nH]1)C(C)C` [Example 195], the EC50 in assay [1] (RLuc reporter) is 0.001 to 0.999 nM; in assay [2] it was 0.001 to 0.99 nM; in assay [3] (setting [8]), 1 to 4.99 nM; in assay [4], 0.023 nM; in assay [5] (RLuc reporter), 0.001 to 0.999 nM.
Regarding `COC(=O)N[C@H](C(=O)N1CCC[C@H]1c1nc2c([nH]1)-c1ccc(-c3ccc4cc(-c5cnc([C@@H]6CCCN6C(=O)[C@H](NC(=O)OC(C)(C)C)c6ccccc6)[nH]5)ccc4c3)cc1CC2)C(C)C` [Example 242], the EC50 in assay [1] (RLuc reporter) is 0.001 to 0.999 nM; in assay [2] it was 0.001 to 0.99 nM; in assay [3] (setting [8]) it was 0.001 to 0.99 nM; in assay [4] it was 0.008 nM; in assay [5] (RLuc reporter), 0.001 to 0.999 nM.
With `COC(=O)N[C@H](C(=O)N1CCC[C@H]1c1ncc(-c2ccc3c(c2)C(F)(F)c2cc(-c4ccc5nc([C@@H]6CC7(CN6C(=O)[C@H](NC(=O)OC)c6ccccc6)OCCO7)[nH]c5c4)ccc2-3)[nH]1)C1CCOCC1` [Example 58], the EC50 in assay [1] (72 h, Table 2, 72 hours) was 0.001 to 0.999 nM; in assay [2], 0.001 to 0.99 nM; in assay [3] (setting [7]) it was 1 to 4.99 nM; in assay [4] (72 h) it was 0.017 nM; in assay [5] (72 h, Table 2, 72 hours), 0.001 to 0.999 nM.
